Counter-ions that a name gives are not always drawn.
Assays:
MELK = target: T1, MELK (Homo sapiens, UniProt Q14680); experiment: HotSpot kinase assay, MELK; format: biochemical; settings: HotSpot radiometric 33P ATP assay, 25° C., 120 min
T1 construct: purchased Reaction Biology Corporation
Description: (§1) In vitro profiling of the MELK, MELK (T460M) kinase panel was performed at Reaction Biology Corporation using the “HotSpot” assay platform. In vitro profiling of the FLT3, FLT3 mutant forms; FLT3 (D835Y), FLT3 (F594R595insR), FLT3 (F594R595insREY), FLT3 (ITD), FLT3 (ITD)-NPOS, FLT3 (ITD)-W51 and FLT3 (R595_E596insEY) kinase panel is performed in the same manner.
(§2) Briefly, specific kinase/substrate pairs along with required cofactors were prepared in reaction buffer; 20 mM Hepes (pH 7.5), 10 mM MgCl2, 1 mM EGTA, 0.02% Brij35, 0.02 mg/mL BSA, 0.1 mM Na3VO4, 2 mM DTT, 1% DMSO. Compounds were delivered into the reaction, followed ˜20 min later by addition of a mixture of ATP (Sigma) and ^33P ATP (PerkinElmer) to a final concentration of […]. Reactions were carried out at 25° C. for 120 min, followed by spotting of the reactions onto P81 ion exchange filter paper (Whatman). Unbound phosphate was removed by extensive washing of filters in 0.75% phosphoric acid. […] IC50 values and curve fits were obtained using Prism (GraphPad Software).

FLT3 = target: T2, FLT3 (Homo sapiens, UniProt P36888); experiment: HotSpot kinase assay, FLT3; format: biochemical; settings: HotSpot radiometric 33P ATP assay, 25° C., 120 min
T2 construct: purchased Reaction Biology Corporation
T2 sequence (P36888 27-993): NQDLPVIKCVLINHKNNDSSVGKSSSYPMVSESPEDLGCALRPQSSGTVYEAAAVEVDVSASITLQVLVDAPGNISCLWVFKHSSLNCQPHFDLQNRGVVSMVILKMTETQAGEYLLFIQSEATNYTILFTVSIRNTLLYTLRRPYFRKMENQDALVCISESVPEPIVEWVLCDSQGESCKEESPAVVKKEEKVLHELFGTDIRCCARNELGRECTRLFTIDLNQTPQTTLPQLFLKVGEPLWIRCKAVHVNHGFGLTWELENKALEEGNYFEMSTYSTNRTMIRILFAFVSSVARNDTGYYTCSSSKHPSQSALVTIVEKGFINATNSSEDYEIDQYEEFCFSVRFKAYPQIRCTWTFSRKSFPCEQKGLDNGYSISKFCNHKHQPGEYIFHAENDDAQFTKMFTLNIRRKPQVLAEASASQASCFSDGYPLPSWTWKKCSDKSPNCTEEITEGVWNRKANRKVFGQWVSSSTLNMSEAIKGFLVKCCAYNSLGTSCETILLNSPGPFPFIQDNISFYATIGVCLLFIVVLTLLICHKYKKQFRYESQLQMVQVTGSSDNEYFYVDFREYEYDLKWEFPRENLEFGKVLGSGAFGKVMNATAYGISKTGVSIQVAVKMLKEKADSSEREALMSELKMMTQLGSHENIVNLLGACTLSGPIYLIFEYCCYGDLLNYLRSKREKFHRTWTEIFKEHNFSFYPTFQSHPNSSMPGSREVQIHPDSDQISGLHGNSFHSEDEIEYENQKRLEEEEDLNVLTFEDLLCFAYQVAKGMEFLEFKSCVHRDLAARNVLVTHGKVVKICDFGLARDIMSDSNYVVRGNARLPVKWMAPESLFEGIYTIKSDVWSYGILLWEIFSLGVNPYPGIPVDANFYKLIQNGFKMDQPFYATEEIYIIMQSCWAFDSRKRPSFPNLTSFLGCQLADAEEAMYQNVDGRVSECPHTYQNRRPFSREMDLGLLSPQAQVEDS
Description: as §1, §2

T1 sequence (Q14680 whole entry): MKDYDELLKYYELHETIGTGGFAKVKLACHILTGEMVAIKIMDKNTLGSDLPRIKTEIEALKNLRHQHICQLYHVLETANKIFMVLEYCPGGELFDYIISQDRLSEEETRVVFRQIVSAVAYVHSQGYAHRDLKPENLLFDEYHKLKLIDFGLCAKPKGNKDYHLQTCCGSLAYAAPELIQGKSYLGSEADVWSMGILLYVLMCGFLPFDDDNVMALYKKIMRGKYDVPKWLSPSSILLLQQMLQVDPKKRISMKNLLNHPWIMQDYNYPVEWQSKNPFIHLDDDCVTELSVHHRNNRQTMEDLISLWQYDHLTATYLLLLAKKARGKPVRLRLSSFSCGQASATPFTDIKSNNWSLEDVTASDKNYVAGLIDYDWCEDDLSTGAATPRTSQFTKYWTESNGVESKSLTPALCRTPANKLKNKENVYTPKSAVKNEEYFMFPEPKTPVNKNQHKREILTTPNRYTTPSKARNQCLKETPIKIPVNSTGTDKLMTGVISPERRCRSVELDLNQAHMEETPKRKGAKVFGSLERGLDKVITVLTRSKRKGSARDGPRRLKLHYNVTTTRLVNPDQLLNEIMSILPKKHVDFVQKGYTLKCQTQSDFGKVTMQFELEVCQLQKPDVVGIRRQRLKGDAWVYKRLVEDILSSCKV

IC50 (MELK) [nM] | IC50 (FLT3) [nM] | Compound
< 200 | < 200 | N[C@H]1CC[C@@H](COc2cncnc2-c2cnn(-c3c(F)cccc3F)c2)CC1 [Compound I-1, (1s,4s)-4-(((4-(1-(2,6-difluorophenyl)-1H-pyrazol-4-yl)pyrimidin-5-yl)oxy)methyl)cyclo-hexan-1-amine]
> 1000 | 200 to 1000 | N[C@H]1CC[C@@H](COc2cncnc2-c2cnn(-c3ccccc3C(F)(F)F)c2)CC1 [Compound I-2, (1s,4s)-4-(((4-(1-(2-(trifluoromethyl)phen-yl)-1H-pyrazol-4-yl)pyrimidin-5-yl)oxy)methyl)cyclo-hexan-1-amine]
200 to 1000 | 200 to 1000 | N[C@H]1CC[C@@H](COc2cncnc2-c2cnn(-c3ccccc3OC(F)(F)F)c2)CC1 [Compound I-3, (1s,4s)-4-(((4-(1-(2-(trifluoromethoxy)phen-yl)-1H-pyrazol-4-yl)pyrimidin-5-yl)oxy)methyl)cyclo-hexan-1-amine]
200 to 1000 | < 200 | N#Cc1ccccc1-n1cc(-c2ncncc2OC[C@H]2CC[C@@H](N)CC2)cn1 [Compound I-4, 2-(4-(5-(((1s,4s)-4-aminocyclohexyl)meth-oxy)pyrimidin-4-yl)-1H-pyrazol-1-yl)benzonitrile]
< 200 | < 200 | COc1ccccc1-n1cc(-c2ncncc2OC[C@H]2CC[C@@H](N)CC2)cn1 [Compound I-5, (1s,4s)-4-(((4-(1-(2-methoxyphenyl)-1H-pyrazol-4-yl)pyrimidin-5-yl)oxy)methyl)cyclo-hexan-1-amine]
200 to 1000 | 200 to 1000 | N[C@@H]1CC[C@H](COc2cncnc2-c2cnn(-c3ccccc3F)c2)C1 [Compound I-6, (1R,3S)-3-(((4-(1-(2-fluorophenyl)-1H-pyrazol-4-yl)pyrimidin-5-yl)oxy)methyl)cyclo-pentan-1-amine]
200 to 1000 | 200 to 1000 | CN(C)[C@@H]1CC[C@H](COc2cncnc2-c2cnn(-c3ccccc3F)c2)C1 [Compound I-7, (1R,3S)-3-(((4-(1-(2-fluorophenyl)-1H-pyrazol-4-yl)pyrimidin-5-yl)oxy)methyl)-N,N-dimethylcyclopentan-1-amine]
< 200 | < 200 | CN(C)C[C@@H]1CC[C@H](COc2cncnc2-c2cnn(-c3ccccc3F)c2)C1 [Compound I-8, 1-((1R,3S)-3-(((4-(1-(2-fluorophenyl)-1H-pyrazol-4-yl)pyrimidin-5-yl)oxy)methyl)cyclo-pentyl)-N,N-dimethylmethanamine]
200 to 1000 | < 200 | CN(C)[C@H]1CC[C@@H](COc2cncnc2-c2cnn(-c3ccccc3F)c2)CC1 [Compound I-9, (1s,4s)-4-(((4-(1-(2-fluorophenyl)-1H-pyrazol-4-yl)pyrimidin-5-yl)oxy)methyl)-N,N-dimethylcyclohexan-1-amine]
> 1000 | 200 to 1000 | NC1CCN(c2cncnc2-c2cnn(-c3ccccc3F)c2)CC1 [Compound I-10, 1-(4-(1-(2-fluorophenyl)-1H-pyrazol-4-yl)pyrimidin-5-yl)piperidin-4-amine]
> 1000 | 200 to 1000 | N[C@H]1CC[C@@H](CNc2cncnc2-c2cnn(-c3ccccc3F)c2)CC1 [Compound I-11, N-(((1s,4s)-4-aminocyclohexyl)meth-yl)-4-(1-(2-fluorophenyl)-1H-pyrazol-4-yl)pyrimidin-5-amine]
> 1000 | 200 to 1000 | N[C@H]1CC[C@@H](CNc2cncnc2-c2cnn(-c3c(F)cccc3F)c2)CC1 [Compound I-12, N-(((1s, 4s)-4-aminocyclohexyl)methyl)-4-(1-(2,6-difluorophenyl)-1H-pyrazol-4-yl)-pyrimidin-5-amine trifluoroacetate]
> 1000 | > 1000 | N[C@@H]1CC[C@@H]1COc1cncnc1-c1cnn(-c2ccccc2F)c1 [Compound I-13, (1R,2S)-2-(((4-(1-(2-fluorophenyl)-1H-pyrazol-4-yl)pyrimidin-5-yl)oxy)methyl)cyclo-butan-1-amine]
> 1000 | 200 to 1000 | Cc1cccc(F)c1-n1cc(-c2ncncc2OC[C@H]2CC[C@@H](N)CC2)cn1 [Compound I-14, (1s,4s)-4-(((4-(1-(2-fluoro-6-methylphenyl)-1H-pyrazol-4-yl)pyrimidin-5-yl)oxy)methyl)cyclo-hexan-1-amine]
200 to 1000 | < 200 | CC(C)N[C@H]1CC[C@@H](COc2cncnc2-c2cnn(-c3ccccc3F)c2)CC1 [Compound I-15, (1s,4s)-4-(((4-(1-(2-fluorophenyl)-1H-pyrazol-4-yl)pyrimidin-5-yl)oxy)methyl)-N-isopropylcyclohexan-1-amine]
> 1000 | > 1000 | CC(C)N1CCC(COc2cncnc2-c2cnn(-c3ccccc3F)c2)CC1 [Compound I-16, 4-(1-(2-fluorophenyl)-1H-pyrazol-4-yl)-5-((1-isopropylpiperidin-4-yl)methoxy)pyrim-idine]
200 to 1000 | 200 to 1000 | CC(Oc1cncnc1-c1cnn(-c2ccccc2F)c1)[C@H]1CC[C@@H](N)CC1 (stereo partly drawn) [Compound I-17, (1S,4s)-4-((R)-1-((4-(1-(2-fluorophenyl)-1H-pyrazol-4-yl)pyrimidin-5-yl)oxy)ethyl)cyclo-hexan-1-amine]
> 1000 | 200 to 1000 | Cc1cccc(F)c1-n1cc(-c2ncncc2OC[C@H]2CCC[C@@H](N)C2)cn1 [Compound I-18, (1R,3S)-3-(((4-(1-(2-fluoro-6-methylphenyl)-1H-pyrazol-4-yl)pyrimidin-5-yl)oxy)methyl)cyclo-hexan-1-amine]
< 200 | < 200 | N[C@H]1CC[C@@H](CCOc2cncnc2-c2cnn(-c3ccccc3F)c2)CC1 [Compound I-19, (1s,4s)-4-(2-((4-(1-(2-fluorophenyl)-1H-pyrazol-4-yl)pyrimidin-5-yl)oxy)ethyl)cyclo-hexan-1-amine]
> 1000 | 200 to 1000 | N[C@H]1CC[C@@H](COc2cncnc2-c2cnn(-c3cc(F)cc(F)c3)c2)CC1 [Compound I-20, (1s,4s)-4-(((4-(1-(3,5-difluorophenyl)-1H-pyrazol-4-yl)pyrimidin-5-yl)oxy)methyl)cyclo-hexan-1-amine]
< 200 | < 200 | N[C@H]1CC[C@@H](COc2cncnc2-c2cnn(-c3ccc(O)c(F)c3)c2)CC1 [Compound I-21, 4-(4-(5-(((1s,4s)-4-aminocyclohexyl)meth-oxy)pyrimidin-4-yl)-1H-pyrazol-1-yl)-2-fluorophenol]
< 200 | < 200 | COc1ccc(-n2cc(-c3ncncc3OC[C@H]3CC[C@@H](N)CC3)cn2)cc1F [Compound I-22, (1s,4s)-4-(((4-(1-(3-fluoro-4-methoxyphenyl)-1H-pyrazol-4-yl)pyrimidin-5-yl)oxy)methyl)cyclo-hexan-1-amine]
< 200 | < 200 | Fc1ccccc1-n1cc(-c2ncncc2OCC2CCNCC2)cn1 [Compound I-23, 4-(1-(2-fluorophenyl)-1H-pyrazol-4-yl)-5-(piperidin-4-ylmethoxy)pyrim-idine]
> 1000 | > 1000 | Fc1ccccc1-n1cc(-c2ncncc2NCC2CCNCC2)cn1 [Compound I-24, 4-(1-(2-fluorophenyl)-1H-pyrazol-4-yl)-N-(piperidin-4-ylmethyl)pyrimidin-5-amine]
< 200 | < 200 | N[C@H]1CC[C@@H](COc2cncnc2-c2cnn(-c3ccccc3F)c2)CC1 [Compound I-25, (1s,4s)-4-(((4-(1-(2-fluorophenyl)-1H-pyrazol-4-yl)pyrimidin-5-yl)oxy)methyl)cyclo-hexan-1-amine]
< 200 | < 200 | N[C@H]1CC[C@H](COc2cncnc2-c2cnn(-c3ccccc3F)c2)CC1 [Compound I-26, (1r,4r)-4-(((4-(1-(2-fluorophenyl)-1H-pyrazol-4-yl)pyrimidin-5-yl)oxy)methyl)cyclo-hexan-1-amine]
